Our source for the Kd values is paper PMC10746158, “Archaeal GPN-loop GTPases involve a lock-switch-rock mechanism for GTP hydrolysis” (mBio, 2023).

Molecules are shown by their SMILES.

The assay concerns the target T1, SaGPN (Sulfolobus acidocaldarius, UniProt Q4J9A7).
T1 construct: gene Saci_1281; E. coli BL21(DE3) Rosetta; Y2-A240 built, 14 C-terminal residues disordered
T1 sequence (Q4J9A7 1-254): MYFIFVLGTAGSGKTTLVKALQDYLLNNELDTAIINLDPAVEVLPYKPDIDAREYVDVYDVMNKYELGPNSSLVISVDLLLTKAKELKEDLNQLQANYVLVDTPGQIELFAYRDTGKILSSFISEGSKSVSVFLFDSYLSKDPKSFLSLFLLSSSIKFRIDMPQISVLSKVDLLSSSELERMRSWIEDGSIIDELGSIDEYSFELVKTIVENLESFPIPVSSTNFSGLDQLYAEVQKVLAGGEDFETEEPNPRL
Nature of the assay: isothermal titration calorimetry. Format: binding.

Turning to `Nc1nc2c(ncn2[C@@H]2O[C@H](COP(=O)(O)OP(=O)(O)O)[C@@H](O)[C@H]2O)c(=O)[nH]1` [GDP], the Kd was found to be 6.15 nM.
On to `Nc1nc2c(ncn2[C@@H]2O[C@H](COP(=O)(O)OP(=O)(O)OP(=O)(O)O)[C@@H](O)[C@H]2O)c(=O)[nH]1` [GTP], for which binding was put at a Kd of 2.2 nM.
The value for `Nc1nc2c(ncn2[C@@H]2O[C@H](COP(=O)(O)OP(=O)(O)NP(=O)(O)O)[C@@H](O)[C@H]2O)c(=O)[nH]1` [GppNHp] was 22 nM.
